Experimental findings from publication PMC4861708 (Frontiers in Cell and Developmental Biology, 2016) are described below.

The test system of data set [1] is E. coli DSM 1103 (ATCC 25922). The format is cell-based, Escherichia coli. Particulars: DSM 1103, 24 h. The protocol: (§1) MICs of P. aeruginosa strains DSM 1117 (ATCC 27853), DSM 3227 (ATCC 19429), and DSM 9644 were determined in a microdilution broth assay using 50 or 100% MHB (11.5 and 23 g/L MHB, respectively) whereas MICs of E. coli DSM 1103 (ATCC 25922) and K. pneumoniae DSM 681 (ATCC 10031) were determined in TSB (30 g/L TSB). Peptides (1 g/L in water) were serially two-fold diluted in a 96-well microtiter plate (PS, sterile, flat bottom) in 50 μL of the corresponding medium to final concentrations of 512–4 μg/mL. Bacteria were grown in nutrient broth overnight and diluted to a cell concentration of 1.5 × 10^7 cells/mL in the corresponding medium. Cell densities were determined by using the McFarland standard as reference. An aliquot (50 μL) of the cell culture was added to each well and incubated (37°C, 24 h). The OD595 was determined in a SpectraMax 340PC (Molecular Devices, Sunnyvale, USA). Additionally, MIC values were also determined for high bacteria densities (5 × 10^8 cells/mL) corresponding to the conditions used for TEM, as described above.

A short description of data set [2]: in vitro. To be noted: mouse, mouse serum, Half-life time mouse serum, 37°C. The method, then: Peptide solutions (1 g/L) were added to mouse serum to obtain final concentrations of 70 mg/L peptide and incubated under constant shaking at 37°C. After 0, 1, 2, 3, and 6 h aliquots (95 μL) were precipitated with aqueous TCA (25 μL, 15% w/v), incubated for 10 min on ice, and centrifuged (5 min, 12,000 × g, Eppendorf mini spin centrifuge). An aliquot of the supernatant (95 μL) was neutralized with sodium hydroxide (8 μL, 1 mol/L) and diluted with aqueous acetonitrile solution (3% acetonitrile, 0.1% TFA; 200 μL). Peptides were quantified by the peak areas obtained by analytical RP-HPLC on a Jupiter C18-column (ID: 2 mm) using a linear aqueous acetonitrile gradient with 0.1% (v/v) TFA (absorbance recorded at 214 nm). Peak areas of all time points were normalized to the initial peak area obtained after “0 min incubation” (= 100%). Experiments were carried out as triplicates in parallel and half-life times were calculated using GraphPad Prism 5.0.

Data set [3] has as its system K. pneumoniae DSM 681 (ATCC 10031). The format is cell-based, Klebsiella pneumoniae. Particulars: DSM 681, 24 h. The method, then: as §1
Data set [4] can be described thus: in vitro. To be noted: human. Format: cell-based. The protocol:
(§2) Human embryonic kidney (HEK293) and HeLa cells were cultured in Dulbecco's modified Eagle's/Ham's F-12 medium [DMEM/F-12 (1:1)] supplemented with FBS (10% v/v), penicillin, and streptomycin (1000 units each). Primary rat cardiomyocytes (Innoprot, Elexalde Derio, Spain) were grown in medium supplemented with FBS (20% v/v), horse serum (5% v/v), L-glutamine (2 mmol/L), sodium pyruvate (2 mmol/L), MEM non-essential amino acids (Gibco, 0.1 mmol/L), penicillin, and streptomycin (1000 units each). Surfaces for cardiomyocyte growth were coated with attachment factor first. Cells (20,000/well) were seeded into a 96-well plate (PS, sterile, flat bottom), incubated for 24 h (37°C, 5% CO2), and washed twice with PBS (100 μl/well) prior to adding colorless medium (88 μL) and peptide solution (12 μL; 5, 2.5, 1.25, […], and 0.625 g/L in PBS). Positive controls were triton X-100 (1%, v/v) and melittin (60 mg/L) as lytic peptide, whereas PBS (12%, v/v) served as negative control. After an incubation period of 24 h, supernatant (25 μL) was mixed with lactate dehydrogenase (LDH) substrate (175 μL; 0.57 mmol/L sodium pyruvate, 0.24 mmol/L NADH disodium salt, 32 mmol/L potassium dihydrogen phosphate, 66 mmol/L dipotassium phosphate) in 96-well plates (PS, sterile, flat bottom). Absorbance was recorded at 340 nm every 3 min for 30 min on the Paradigm microplate reader. Due to the total release of LDH upon triton X-100 treatment, the control contained high LDH concentrations resulting in a fast substrate turnover that was only linear for the first 6 min.
(§3) The MTT cell viability assay relied on the same cell culture. Remaining medium was replaced by a mixture of fresh colorless medium (100 μL) and MTT (10 μL; 5 g/L in PBS) and incubated for 4 h (37°C, 5% CO2). A solution of sodium dodecyl sulfate (100 μL; 10%, w/v) dissolved in hydrochloric acid (10 mmol/L) was added, incubated (16 h), and the absorbance recorded at 590 nm relative to the reference at 650 nm (Paradigm microplate reader). The relative cell viability was calculated by [(ODPeptide − ODTriton)/(ODPBS − ODTriton)] × 100% and half-maximal inhibitory concentrations (IC50) with an Excel-template from cell biology protocols (www.sciencegateway.org/ protocols/cellbio/drug/hcic50.htm). For statistical analysis an unpaired t-test was applied using GraphPad Prism 5.0.

A further data set deals with HeLa cells. Put plainly: in vitro. The format is cell-based. To be noted: 24 h. The method, then: as §2, §3
A short description of data set [5]: in vitro. The format is cell-based, human. To be noted: human. The protocol: as §2, §3
A further data set concerns HEK293 cells. As to the kind of experiment: in vitro. The format is cell-based, human. To be noted: 24 h. The protocol: as §2, §3
Data set [6] deals with Primary rat cardiomyocytes. As to the kind of experiment: in vitro. To be noted: 24 h. The format is cell-based. The method, then:
as §2, §3

Values after ≈ are worked out from the molar mass of the structure shown. Where a SMILES comes first, the peptide text is derived from it. [ ]: non-standard residue; d: D form. The star is where a group is joined. Orn(α-tetramethylguanidino) = CN(C)C(=N[C@@H](CCCN)C(=O)*)N(C)C; Orn = NCCC[C@H](N)C(=O)O

The term half-life denotes how long it takes for the measured level to halve. Read a high half-life as slow loss. In general, viability refers to the share of living cells, or the viability signal relative to a control. Higher therefore signals better survival. Consider `CC[C@H](C)[C@H](NC(=O)[C@H](CCCN)N=C(N(C)C)N(C)C)C(=O)N[C@@H](CCCN)C(=O)N[C@H](C(=O)N[C@@H](CCCN)C(=O)N[C@H](C(=O)N[C@@H](CCCN)C(=O)N[C@@H](CCCNC(=N)N)C(=O)N1CCC[C@H]1C(=O)N[C@H](C(=O)N[C@@H](Cc1ccc(O)cc1)C(=O)N[C@@H](CCCN)C(=O)N1CCC[C@H]1C(=O)N[C@@H](CCCNC(=N)N)C(=O)N1CCC[C@H]1C(=O)N[C@@H](CCCNC(=N)N)C(=O)N1CCC[C@H]1C(=O)N1CCC[C@H]1C(=O)N[C@@H](Cc1c[nH]cn1)C(=O)N1CCC[C@H]1C(=O)N[C@@H](CCCNC(=N)N)C(=O)N[C@@H](CC(C)C)C(=O)O)C(C)C)[C@@H](C)CC)[C@@H](C)CC` [Api796, GuO(IO)3RPVYOPRPRPPHPRL] ({Orn(α-tetramethylguanidino)}-I[Orn]I[Orn]I[Orn]RPVY[Orn]PRPRPPHPRL-OH), for which the “MIC E. coli ATCC 25922” value in data set [1] came out at 8 mg/L (≈ 2.91 µM). The half-life at 70 mg/L in “in vitro [2]” worked out at 4.15 h. The “MIC K. pneumoniae DSM 681” value in data set [3] stood at 16 mg/L (≈ 5.83 µM). Moreover, the viability at 24 h, 0.6 g/L in “in vitro [4]” was 61 ± 14%; in “in vitro [5]”, about 60%. Besides, the “IC50 on cell viability” value (with HeLa cells; with HEK293 cells; in data set [6]) was over 600 mg/L throughout.
